Columns and labels:
[1] = Toxicity and weight loss in xenograft-bearing treated animals; assay type: in vivo, nude mice; conditions: for Lethal toxicity or significant weight loss: combination study, CWRSA6, R-etodolac 200 mg/kg daily, 2C4 20 mg/kg 2X/wk, three weeks
PPARγ1 = assay: PPARγ protein (Western blot) and mRNA (RT-PCR) in treated prostate cancer xenografts; assay type: in vivo, nude mice; conditions: for PPARγ protein by immunoblot in xenograft lysates of combination study: 22 days of treatment
Procedure: (§1) Total RNA was extracted from prostate tumors or the LNCaP cell line using the TRIZOL reagent (obtained from Invitrogen Corp.; San Diego, Calif.). Samples were heated at 95° C. for 3 minutes and snap-cooled before proceeding with DNase I treatment to prevent RNA/DNA hybridization. DNase I (obtained from Ambion; Austin, Tex.) was used to remove any genomic DNA that might interfere with the reaction. Samples were treated with DNase I for 1 hour at 37° C. The RNA yield was quantified spectrometrically.
Total RNA was reverse-transcribed (RT) into cDNA and polymerase chain reaction (PCR) was performed in the same reaction using a real-time TAQman One-Step RT-PCR Master Mix Reagents Kit (obtained from Applied Biosystems; Foster City, Calif.). The sequences of the primer/probe sets used for this analysis are as follows. F and R are the forward and reverse primers, respectively, and P is the fluorescent-labeled probe.
The real-time one step RT-PCR cycling conditions for all primer sets were as follows: 30 min at 48° C. for RT step; 10 min at 95° C. for […] Gold Activation; and 40 cycles for cDNA denaturing (95° C., 15 s), and annealing/elongation (60° C. for 1 min) steps. PCR reactions for each template were done in triplicate using 1 μg of total RNA per sample. Each gene-specific primer pair was tested on standard 384-well plates. Standard curves were constructed using 10-1000 ng of total RNA prepared from the CWRSA6 tumor line.
The comparative CT method (Perkin Elmer Applied Biosystems; Foster City, Calif.) was used to determine relative quantification of gene expression for each gene compared with the β-actin control. First, the CT values from the β-actin reactions were averaged for each triplicate. Next, the CT values from the gene-of-interest reactions were averaged. The gene-of-interest average was […] the β-actin average to take into account the variability of total RNA.
(§2) Immunoblots were performed as described in Towbin H., “Electrophoretic Transfer of Proteins from Polyacrylamide Gels to Nitrocellulose Sheets: Procedure and Some Applications,” Proc. Natl. Acad. Sci. USA, Vol. 76, No. 9 p. 4350-4354 (1979) using aliquots of tumor lysates (100 μg per lane) or lysates from LNCaP cells (100 μg per lane). Protein concentration was determined with a Bradford Assay (obtained from Bio-Rad Inc.; Hercules, Calif.). The lysates were separated on 10% SDS polyacrylamide gels and transferred onto nitrocellulose filters. […]

PPARγ = biological target: T1, PPARγ (Homo sapiens, UniProt P37231); assay: PPARγ reporter (AOx)3-TK-Luc transient transfection luciferase assay in RAW 267.4 cells; assay type: cell-based; conditions: for PPRE-driven reporter gene expression / PPARγ transactivation: varying concentrations, with recombinant PPARγ
T1 construct: expressed in transfected cells; host or cells: RAW 267.4 mouse macrophages
T1 sequence (P37231 1-505): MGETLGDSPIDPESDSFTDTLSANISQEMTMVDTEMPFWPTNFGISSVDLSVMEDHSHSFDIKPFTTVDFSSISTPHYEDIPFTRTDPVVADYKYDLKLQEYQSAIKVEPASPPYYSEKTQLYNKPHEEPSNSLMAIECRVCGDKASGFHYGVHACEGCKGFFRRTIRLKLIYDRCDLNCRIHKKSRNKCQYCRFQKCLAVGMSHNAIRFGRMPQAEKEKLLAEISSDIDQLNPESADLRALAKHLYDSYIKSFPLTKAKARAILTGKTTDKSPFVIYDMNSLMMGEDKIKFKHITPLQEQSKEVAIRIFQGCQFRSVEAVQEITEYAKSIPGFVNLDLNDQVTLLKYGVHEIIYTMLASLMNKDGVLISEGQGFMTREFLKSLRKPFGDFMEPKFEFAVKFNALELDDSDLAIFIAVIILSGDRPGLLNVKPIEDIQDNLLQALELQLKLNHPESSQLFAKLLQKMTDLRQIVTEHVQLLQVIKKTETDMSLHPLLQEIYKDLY
Procedure: […] cells were maintained at 37° C. and 5% CO2 in Dulbecco's modified eagle medium (DMEM) with high glucose (obtained from GIBCO; Grand Island, N.Y.) supplemented with 10% fetal bovine serum (FBS), 100 μg/ml penicillin and 100 μg/ml streptomycin.
For transfection, cells were grown in DMEM with 10% FBS for at least 24 hours prior to transfection. Transient transfections were performed in 12-well plates for at least 24 hours prior to transfection. At approximately 50% confluence, cells were transfected using the FuGENE transfection reagent (obtained from Roche Diagnostics GmbH; Mannheim, Germany) according to the manufacturer's instruction with 0.5 μg of reporter plasmid (AOx)3-TK-Luc, 0.1 to 0.2 μg of control plasmid pCMXμgal, 0.1 μg PPARγ expression plasmid and carrier DNA for a total of 1 μg DNA per well. After 16 hours, the cells were washed and fresh medium containing the appropriate amount of drugs, prepared in 0.5% DMSO, was added to the cells for another 24 hours. The cells were treated with either vehicle alone (DMSO), indomethacin, rosiglitazone or varying concentrations of R- or S-etodolac.
For luciferase assays, cells were lysed in potassium phosphate buffer containing 1% TRITON X-100 (obtained from Rohm and Haas Co.; Philadelphia, Pa.) and light emission was detected in the presence of luciferin using a microtiter plate luminometer. Luciferase values were normalized for variations in transfection efficiency using a β-galactosidase internal control. The results are expressed as relative luciferase units (RLU). The luciferase activity values represent the mean of a minimum of three independent transfections performed in triplicate.
The 22Rv1 cells were seeded into 100 mm dishes and allowed to attach for a period of 18 hours. The media was then replaced with phenol red-free and serum-free RPMI 1640, with 100 μg/ml penicillin and 100 μg/ml streptomycin ±R-etodolac for the indicated times. MAP-kinase activation was assessed by Western blot analysis using methods described above. LNCaP cells were treated with R-etodolac at 200, 400, and 600 μM concentrations for 18 Hours. Total protein or RNA was isolated using methods as described previously. Cyclin D1 protein and mRNA expression were assessed by western blot and a real-time quantitative RT-PCR assay as previously described. This transactivation function is mediated only in the presence of recombinant PPARγ.

[2] = tested on: CD36 expression in THP-1 cells; assay: TPA-induced CD36 scavenger receptor expression in THP-1 cells by flow cytometry; assay type: cell-based, human; conditions: 200 μM, TPA 40 ng/ml
Procedure: Prostate carcinoma cell lines, 22Rv1 and LNCaP, and human acute monocytic leukemia (THP-1) cells were obtained from the American Type Culture Collection (Rockville, Md.) and maintained in RPMI 1640 medium supplemented with 10% FBS, 100 μg/ml penicillin and 100 μg/ml streptomycin (obtained from GIBCO; Grand Island, N.Y.). […] Second, the combination of PPARγ transactivation, together with protein kinase C activation by a phorbol ester, has been reported to induce the scavenger receptor CD36 in macrophages (Han and […], 2002). CD36 is documented as a PPARγ-regulated gene (Tontonoz et al., 1998). […] THP-1 cells were treated for 5 days with 200 μM etodolac (racemic mixture) and 20 μM troglitazone in the presence or absence of 40 ng/ml phorbol ester (TPA) for 48 hours. Cells were fixed and stained with unconjugated anti-CD36 and FITC conjugated anti-IgG and analyzed by flow cytometry. A population of 10,000 viable cells was analyzed for each treatment.

NIH3T3-PPARγ cells = assay: Neutral lipid accumulation (Oil Red O) in NIH3T3 cells expressing recombinant PPARγ; assay type: cell-based, mouse
Procedure: Third, PPARγ is accepted as a master regulator of adipocyte differentiation. […] NIH3T3 cells that stably overexpress retrovirally expressed recombinant PPARγ were obtained from Dr. Ronald Evans (Salk Institute, La Jolla, Calif.). […] NIH3T3 cells stably expressing recombinant PPARγ (obtained from Dr. Ronald Evans of the Jonas Salk Institute; San Diego, Calif.) were maintained in DMEM supplemented with 10% BCS, 100 μg/ml penicillin and 100 μg/ml streptomycin (obtained from GIBCO; Grand Island, N.Y.). The cells were treated for seven days with the indicated compounds and concentrations and stained for neutral lipids with Oil Red O as described by Green and Kehinde (“Sublines of mouse 3T3 cells that accumulate lipid,” Cell, Vol. 1, p. 113-116 (1974)).

[3] = tested on: LuCaP-35 human prostate cancer xenografts; assay: Tumor growth of androgen-dependent LuCaP-35 prostate cancer xenografts in nude mice; assay type: in vivo; conditions: 200 mg/kg o.g. daily; p=0.0103
[4] = tested on: cyclin D1 expression in LNCaP cells; assay: Cyclin D1 mRNA (RT-PCR) and protein (Western blot) expression in LNCaP cells; assay type: cell-based, human
Procedure: as §1, with “spectrometrically. […]” for “spectrometrically.”
(§3) The mRNA expression of cyclin D1 (Takayasu, H. et al., “Frequent deletions and mutations of the beta-catenin gene are associated with overexpression of cyclin D1 and fibronectin and poorly differentiated histology in childhood hepatoblastoma,” Clin. Cancer Res., Vol. 7, p. 901-908 (2001)) and the HER-kinase receptors were analyzed using primer sets as described in Agus, D. B. et al, “Targeting ligand activated ErbB2 signaling inhibits breast and prostate tumor growth,” Cancer Cell, Vol. 2, p. […]
(§4) The comparative CT method (Perkin Elmer Applied Biosystems; Foster City, Calif.) was used to determine relative quantification of gene expression for each gene compared with the β-actin control. […]
The 22Rv1 cells were seeded into 100 mm dishes and allowed to attach for a period of 18 hours. […] MAP-kinase activation was assessed by Western blot analysis using methods described above. […]

[5] = tested on: phospho-p44/42 MAP kinase; assay: Phospho-MAP kinase (p44/42) Western blot in CWRSA6 xenografts, time course; assay type: in vivo, nude mice
Procedure: Immunoblots were performed as described in Towbin H., “Electrophoretic Transfer of Proteins from Polyacrylamide Gels to Nitrocellulose Sheets: Procedure and Some Applications,” Proc. Natl. Acad. Sci. USA, Vol. 76, No. 9 p. 4350-4354 (1979) using aliquots of tumor lysates (100 μg per lane) or lysates from LNCaP cells (100 μg per lane). Protein concentration was determined with a Bradford Assay (obtained from Bio-Rad Inc.; Hercules, Calif.). The lysates were separated on 10% SDS polyacrylamide gels and transferred onto nitrocellulose filters. The membranes were incubated overnight at 4° C. with antibodies against PPARγ (Sc-7273 obtained from Santa Cruz Inc.; Santa Cruz, Calif.), ERK1 (Sc-94 obtained from Santa Cruz Inc.; Santa Cruz, Calif.), and phospho-p44/42 MAP kinase (9101S obtained from Cell Signal; Beverly, Mass.), and cyclin D1 (554180 obtained from BD Pharmingen; San Diego, Calif.) in parallel with anti-β-actin antibodies (A2066 obtained from Sigma; St. Louis, Mo.) and washed well before incubating with the appropriate α-mouse or α-rabbit secondary antibody conjugated with horseradish peroxidase (obtained from Amersham Biosciences, UK).

[6] = tested on: phospho-MAP kinase in 22Rv1 cells; assay: Phospho-MAP kinase activation Western blot in 22Rv1 prostate cancer cells; assay type: cell-based, human; conditions: 500 μM, within 20 minutes of addition, then sustained
Procedure: as §2
The 22Rv1 cells were seeded into 100 mm dishes and allowed to attach for a period of 18 hours. […] MAP-kinase activation was assessed by Western blot analysis using methods described above. […] Cyclin D1 protein and mRNA expression were assessed by western blot and a real-time quantitative RT-PCR assay as previously described. […]

HER-kinase receptors = assay: HER-kinase receptor mRNA expression in treated xenografts (RT-PCR); assay type: in vivo, nude mice; conditions: data not shown
Procedure: as §1, with “spectrometrically. […]” for “spectrometrically.”
as §3, §4

[7] = tested on: CWRSA6 human prostate cancer xenografts; conditions: 200 mg/kg o.g. daily; p=0.002
cyclooxygenase (COX) = conditions: literature (Adachi et al.; Demerson et al.); cited from earlier work

For “2C4: Recombinant humanized HER-2 specific monoclonal antibody that inhibits ligand-induced heterodimerization of ErbB2”, the “Lethal toxicity or significant weight loss” value [1] was “no lethal toxicity or significant weight loss” and the “PPARγ protein by immunoblot in xenograft lysates of combination study” value (PPARγ1; CWRSA6 xenografts) was “expressed PPARγ”.

For `CCc1cccc2c3c([nH]c12)[C@@](CC)(CC(=O)O)OCC3` [R-etodolac], the “Transactivation of PPARγ reporter (fold-induction of luciferase expression)” value (PPARγ; 100 μM, relative to no drug control, 24 hours) was 13 fold, the “PPRE-driven reporter gene expression / PPARγ transactivation” value (PPARγ) was “enhances reporter gene expression in a dose dependent manner” and the “CD36 expression as downstream indicator of PPARγ activation” value [2] was “equivalent potency”. The “Accumulation of neutral lipids and morphological changes (Oil Red O)” value (NIH3T3-PPARγ cells; 1 μM, seven days) was “displayed accumulation of neutral lipids”, the “Lipid uptake (Oil Red O)” value (NIH3T3-PPARγ cells; 500 μM, seven days) was “significantly more pronounced” and the “Lipid uptake in NIH3T3 cells transfected with the empty retroviral vector” value (NIH3T3-PPARγ cells; empty vector control cells, data not shown) was “did not demonstrate the lipid uptake”. For the same compound, the “Tumor growth inhibition relative to control-treated animals” value [3] was 46%, the “Lethal toxicity or weight loss (greater than 10% body weight)” value ([1]; 200 mg/kg o.g. daily, single agent study) was “no lethal toxicity or weight loss” and the “Lethal toxicity or significant weight loss” value [1] was “no lethal toxicity or significant weight loss”. For the same compound, the “Cyclin D1 protein expression” value ([4]; 18 hours, 200, 400 and 600 μM) was “downregulation”, the “Cyclin D1 mRNA expression” value ([4]; 18 hours, 200 and 400 μM) was “downregulation” and the “PPARγ protein in tumors vs vehicle treated control” value (PPARγ1; CWRSA6 and LuCaP-35 xenografts, two to three weeks of treatment, 200 mg/kg) was “completely eliminated”. For the same compound, the “PPARγ receptor level in time course experiment” value (PPARγ1; CWRSA6 xenografts, 24 to 72 hours post treatment) was “upregulation of the PPARγ receptor in the majority of the animals”, the “PPARγ protein by immunoblot in xenograft lysates of combination study” value (PPARγ1; CWRSA6 xenografts) was “complete ablation” and the “Phosphorylated p44/42 levels” value ([5]; 24 hours post treatment, 200 mg/kg) was “sharp increase”. The “Total MAP kinase expression” value ([5]; time course) was “No difference”, the “MAP kinase activation, rest of time course” value ([5]; up to 72 hours) was “low level of sustained activation” and the Phospho-MAP kinase activation [6] was “transient peak”. The “mRNA expression of the HER-kinase receptors” value (HER-kinase receptors) was “did not alter”, the “Tumor growth inhibition relative to control-treated animals” value [7] was 66% and the COX inhibitory activity (cyclooxygenase (COX)) was “lacks COX inhibitory activity”.

For `CCc1cccc2c3c([nH]c12)[C@](CC)(CC(=O)O)OCC3` [S-etodolac], the “PPRE-driven reporter gene expression / PPARγ transactivation” value (PPARγ) was “can also transactivate PPARγ but to significantly lower levels”.

With `COc1ccc2c(c1)c(CC(=O)O)c(C)n2C(=O)c1ccc(Cl)cc1` [indomethacin] the “PPARγ transactivation compared with 100 μM R-etodolac” value (PPARγ; 10 μM) was “comparable”.
